Data: patent US6974814B2, “Neuropharmacological treatment of sleep-related breathing disorders” (The Board of Trustees of the University of Illinois, priority 1999, dated 2005)

Experiments:
sleep apnea = conditions: cited from earlier work; for effect in individuals with central apnea: central apneas
apnea = conditions: animal model of sleep apnea; cited from earlier work
[1] = test system: intertrigeminal region of the brainstem; conditions: administration into the brainstem; cited from earlier work
[2] = individuals with obstructive sleep apnea

Description for spontaneous apneas: Adult, male Sprague-Dawley rats (Sasco-King, Wilmington, Mass.; usually 8 per test group; 300 g) are maintained on a 12-hour light (08:00–20:00 hour)/12-hour dark (20:00–08:00 hour) cycle for one week, housed in individual cages and given ad libitum access to food and water. Following the one week of acclimatization, animals are subjected to the following surgical procedures.
Acclimatized animals are anesthetized for the implantation of cortical electrodes for electroencephalogram (EEG) recording and neck muscle electrodes for electromyogram (EMG) recording using a mixture of ketamine (Vedco, Inc., St. Joseph, Mo.; 100 mg/ml) and acetylpromazine (Vedco, Inc., St. Joseph, Mo.; 10 mg/ml; 4:1, volume/volume) at a volume of 1 ml/kg body weight. The surface of the skull is exposed surgically and cleaned with a 20% solution of hydrogen peroxide followed by a solution of 95% isopropyl alcohol. Next, a dental preparation of sodium fluoride (Flura-GEL®, Saslow Dental, Mt. Prospect, Ill.) is applied to harden the skull above the parietal cortex and allowed to remain in place for 5 minutes. The fluoride mixture is then removed from the skull above the parietal cortex. The EEG electrodes consisting of four stainless steel machine screws, having leads attached thereto, are threaded into the skull to rest on the dura over the parietal cortex. A thin layer of Justi® resin cement (Saslow Dental, Mt. Prospect, Ill.) is applied to cover the screw heads (of screws implanted in the skull) and surrounding skull to further promote the adhesion of the implant. EMG electrodes consisting of two ball-shaped wires are inserted into the bilateral-neck musculature. All leads (i.e., EEG and EMG leads) are soldered to a miniature connector (39F1401, Newark Electronics, Schaumburg, Ill.). Lastly, the entire assembly is fixed to the skull with dental cement.
After surgery, all animals are allowed to recover for one week before being subjected to another surgery that involved implantation of a radiotelemetry transmitter (TA11-PXT, Data Sciences International, St. Paul, Minn.) for monitoring blood pressure (BP) and heart period (HP), estimated as pulse interval. After the animals are anesthetized (as described above), the hair from the subxiphoid space to the pelvis is removed. The entire area is scrubbed with iodine and rinsed with alcohol and saline. A 4–6 cm midline abdominal incision is made to allow good visualization of the area from the bifurcation of the aorta to the renal arteries. A retractor is used to expose the contents of the abdomen and the intestine is held back using saline moistened gauze sponges. […]
Physiological parameters (see below) from each animal are recorded on numerous occasions in random order, with recordings for an individual animal separated by at least 3 days.

Molecule: CC(=O)Nc1nnc(S(N)(=O)=O)s1 [acetazolamide]
- effect in individuals with central apnea (sleep apnea): variable improvement
- effect in individuals with obstructive sleep apnea (OSAS) (sleep apnea): increase in obstructive apneas

Molecule: Nc1nc2ccc(OC(F)(F)F)cc2s1 [riluzole]
- average decrease in apnea expression (apneas per hour of NREM sleep) (spontaneous apneas; NREM sleep, 4.0 mg/kg intraperitoneal 15 min before 6 h recording, vs saline, p=0.05): 31%
- animals with a decrease in apnea expression (spontaneous apneas; NREM sleep, 4.0 mg/kg intraperitoneal, vs saline): 5 of 7
- average decrease in apnea expression (apneas per hour of REM sleep) (spontaneous apneas; REM sleep, 4.0 mg/kg intraperitoneal 15 min before 6 h recording, vs saline, p=0.11): 27%
- overall effect on production of spontaneous sleep apneas (spontaneous apneas; both NREM and REM sleep): physiologically significant decrease

Molecule: Cn1c(=O)c2[nH]cnc2n(C)c1=O [theophylline]
- effect in individuals with central apnea (sleep apnea): may benefit
- effect in individuals with obstructive sleep apnea (OSAS) (sleep apnea): of no use

Molecule: Nc1ncnc2c1ncn2[C@@H]1O[C@H](CO)[C@@H](O)[C@H]1O [adenosine]
- effect on apnea (apnea): somewhat effective in reducing apnea

Molecule: CCN1CC(CCN2CCOCC2)C(c2ccccc2)(c2ccccc2)C1=O (stereo not shown) [doxapram]
- average arterial oxygen saturation (sleep apnea; [2]): did not alter
- length of apneas (sleep apnea; [2]): decrease the length of apneas

Molecule: C=CCN1CC[C@]23c4c5ccc(O)c4O[C@H]2C(=O)CC[C@@]3(O)[C@H]1C5 [naloxone]
- effect in individuals with obstructive sleep apnea (OSAS) (sleep apnea): only slightly helpful

Molecule: medroxyprogesterone
- effect in individuals with obstructive sleep apnea (OSAS) (sleep apnea): no consistent benefit

Molecule: CNCCCC1c2ccccc2C=Cc2ccccc21 [Protriptyline]
- effect in individuals with obstructive sleep apnea (OSAS) (sleep apnea): variable results
- side effects (sleep apnea; several small trials in OSAS): frequent and significant side effects

Molecule: N[C@@H](CCC(=O)O)C(=O)O [glutamate]
- effect on breathing (reflex apneas) [1]: provoked reflex apneas
